Assays:
[1] = biological target: T1, Amine oxidase [flavin-containing] A (Homo sapiens, UniProt P21397); experiment: Inhibition of human recombinant MAOA assessed as conversion of kynuramine to 4-hydroxyquinoline preincubated for 15 mins by fluorimetric assay
T1 sequence (P21397 whole entry): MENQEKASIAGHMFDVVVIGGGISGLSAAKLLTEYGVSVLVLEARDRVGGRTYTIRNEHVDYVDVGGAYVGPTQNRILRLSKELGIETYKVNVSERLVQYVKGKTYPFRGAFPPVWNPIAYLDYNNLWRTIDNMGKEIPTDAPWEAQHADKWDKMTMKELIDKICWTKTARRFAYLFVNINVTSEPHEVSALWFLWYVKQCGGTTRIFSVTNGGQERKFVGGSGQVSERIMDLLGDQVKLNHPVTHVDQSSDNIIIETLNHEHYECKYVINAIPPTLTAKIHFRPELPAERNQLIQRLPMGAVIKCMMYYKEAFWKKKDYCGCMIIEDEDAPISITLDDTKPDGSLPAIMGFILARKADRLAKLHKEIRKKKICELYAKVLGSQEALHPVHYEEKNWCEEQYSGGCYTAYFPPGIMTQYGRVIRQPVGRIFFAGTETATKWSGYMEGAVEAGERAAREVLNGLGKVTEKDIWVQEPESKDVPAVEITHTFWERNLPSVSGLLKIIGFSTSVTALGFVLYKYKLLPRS

[2] = biological target: T2, Amine oxidase [flavin-containing] B (Homo sapiens, UniProt P27338); experiment: Inhibition of human recombinant MAOB assessed as conversion of kynuramine to 4-hydroxyquinoline preincubated for 15 mins by fluorimetric assay
T2 sequence (P27338 whole entry): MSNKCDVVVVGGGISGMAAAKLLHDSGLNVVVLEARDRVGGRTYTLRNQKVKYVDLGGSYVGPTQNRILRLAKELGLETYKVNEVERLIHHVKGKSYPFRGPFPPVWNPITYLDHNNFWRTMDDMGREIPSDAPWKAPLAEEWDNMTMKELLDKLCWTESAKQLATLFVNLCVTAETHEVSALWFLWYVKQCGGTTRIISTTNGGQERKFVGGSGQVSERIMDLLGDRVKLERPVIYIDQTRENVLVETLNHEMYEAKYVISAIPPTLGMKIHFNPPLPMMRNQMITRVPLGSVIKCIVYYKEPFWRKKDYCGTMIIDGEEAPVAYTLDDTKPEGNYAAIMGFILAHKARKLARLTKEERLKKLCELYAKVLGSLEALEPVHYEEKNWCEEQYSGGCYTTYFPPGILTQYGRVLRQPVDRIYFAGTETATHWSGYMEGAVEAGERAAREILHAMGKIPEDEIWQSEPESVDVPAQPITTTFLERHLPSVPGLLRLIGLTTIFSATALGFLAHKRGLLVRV

[3] = organism: Homo sapiens; experiment: Selectivity index, ratio of IC50 for human recombinant MAOA to IC50 for human recombinant MAOB

IC50 [1] [µM]	IC50 [2] [µM]	Ratio IC50 [3]	SMILES
9.7	33.4	0.29	COc1cc(NC(C)CCCN)c2nccc(C)c2c1Oc1ccc(F)cc1 (stereo unspecified)
22.7	3.65	6.22	COc1cc(NC(C)CCCN)c2nccc(C)c2c1Oc1ccc(F)c(F)c1 (stereo unspecified)
–	94.5	0.8	COc1cc(NC(C)CCCN)c2ncccc2c1 (stereo unspecified) [PRIMAQUINE]
3.22	10.8	0.3	COc1cc(NC(C)CCCN)c2nccc(C)c2c1Oc1cccc(F)c1 (stereo unspecified)

— ChEMBL document CHEMBL1949666, “Inhibition of human monoamine oxidase A and B by 5-phenoxy 8-aminoquinoline analogs” (Bioorg Med Chem Lett, 2012)
